Active and inactive are the calls of the source. The rule behind the calls is not given here.

The values below come from PubChem BioAssay AID1259411 (Chemical Carcinogenesis Research Information System (CCRIS), 2018).

This series relates to rodent carcinogenicity bioassays, tumor incidence. The experiment in a line: CCRIS carcinogenicity studies. Conditions: Route: INHALATION
The method, boiled down: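 NCI-built, expert-reviewed records of carcinogenicity and related test outcomes (mutagenicity, tumor promotion/inhibition) compiled from published and report sources, historical span 1985-2011, not updated.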

As to `C=CC=C`, the carcinogen call by setting is: (Species: MOUSE, Strain/Sex: B6C3F1/FEMALE, Dose: 0, 6.25, 20, 62.5, 200, 625 PPM 6 HR/D 5 D/WK FOR 2 YR (STUDY DURATION: 2 YR), Dose: 0, 6.25, 20, 62.5, 200, 625 PPM 6 HR/D 5 D/WK FOR 2 YR (STUDY DURATION: 2 YR), Tumor Site: Type of Lesion: HARDERIAN GLAND: ADENOMA OR ADENOCARCINOMA, LIVER: HEPATOCELLULAR CARCINOMA, MAMMARY GLAND: ADENOCARCINOMA, OVARIES: GRA, Tumor Site: Type of Lesion: HARDERIAN GLAND: ADENOMA OR ADENOCARCINOMA, LIVER: HEPATOCELLULAR CARCINOMA, MAMMARY GLAND: ADENOCARCINOMA, OVARIES: GRA) “active; positive”; (Species: MOUSE, Strain/Sex: B6C3F1/FEMALE, Dose: 0, 6.25, 20, 62.5, 200, 625 PPM 6 HR/D 5 D/WK FOR 2 YR (STUDY DURATION: 2 YR), Dose: 0, 6.25, 20, 62.5, 200, 625 PPM 6 HR/D 5 D/WK FOR 2 YR (STUDY DURATION: 2 YR), Tumor Site: Type of Lesion: HEMATOPOIETIC SYSTEM: LYMPHOCYTIC LYMPHOMA, LYMPHOMA, BLOOD VESSELS: HEMANGIOSARCOMA, LUNG: ALVEOLAR/BRONCHIOLAR TUMOR;, Tumor Site: Type of Lesion: HEMATOPOIETIC SYSTEM: LYMPHOCYTIC LYMPHOMA, LYMPHOMA, BLOOD VESSELS: HEMANGIOSARCOMA, LUNG: ALVEOLAR/BRONCHIOLAR TUMOR) “active; positive”; (Species: MOUSE, Strain/Sex: B6C3F1/FEMALE, Dose: 0, 6.25, 20, 62.5, 200, 625 PPM 6 HR/D 5 D/WK FOR 103 WK (STUDY DURATION: 2 YR), Dose: 0, 6.25, 20, 62.5, 200, 625 PPM 6 HR/D 5 D/WK FOR 103 WK (STUDY DURATION: 2 YR), Tumor Site: Type of Lesion: HEART: HEMANGIOSARCOMA, LUNG: ALVEOLAR/BRONCHIOLAR ADENOMA, ADENOCARCINOMA OR CARCINOMA, FORESTOMACH: SQUAMOUS CELL PAPI, Tumor Site: Type of Lesion: HEART: HEMANGIOSARCOMA, LUNG: ALVEOLAR/BRONCHIOLAR ADENOMA, ADENOCARCINOMA OR CARCINOMA, FORESTOMACH: SQUAMOUS CELL PAPI) “active; positive”; (Species: MOUSE, Strain/Sex: B6C3F1/FEMALE, Dose: 0, 6.25, 20, 62.5, 200 PPM 6 HR/D 5 D/WK FOR 65 WK (STUDY DURATION: 104 WK), Dose: 0, 6.25, 20, 62.5, 200 PPM 6 HR/D 5 D/WK FOR 65 WK (STUDY DURATION: 104 WK), Tumor Site: Type of Lesion: HEART: HEMANGIOSARCOMA, LUNG: ALVEOLAR/BRONCHIOLAR TUMOR, MAMMARY GLAND: ADENOCARCINOMA, OVARY: GRANULOSA CELL TUMOR, Tumor Site: Type of Lesion: HEART: HEMANGIOSARCOMA, LUNG: ALVEOLAR/BRONCHIOLAR TUMOR, MAMMARY GLAND: ADENOCARCINOMA, OVARY: GRANULOSA CELL TUMOR) “active; positive”; (Species: MOUSE, Strain/Sex: B6C3F1/FEMALE, Dose: 0, 1000, 5000, 10000 PPM FOR 2 HR ONCE (STUDY DURATION: 2 YR), Dose: 0, 1000, 5000, 10000 PPM FOR 2 HR ONCE (STUDY DURATION: 2 YR)) “inactive; negative”; (Species: MOUSE, Strain/Sex: B6C3F1/FEMALE, Dose: 625, 1250 PPM 6 HR/D 5/WK FOR 61 WK, Tumor Site: Type of Lesion: LYMPHATIC SYSTEM: MALIGNANT LYMPHOMA, LUNG: ALVEOLAR/BRONCHIOLAR ADENOMA, CARCINOMA, MYOCARDIUM: HEMANGIOSARCOMA, FOREST, Tumor Site: Type of Lesion: LYMPHATIC SYSTEM: MALIGNANT LYMPHOMA, LUNG: ALVEOLAR/BRONCHIOLAR ADENOMA, CARCINOMA, MYOCARDIUM: HEMANGIOSARCOMA, FOREST) “active; positive”. For the same molecule, the carcinogen call (Species: MOUSE, Strain/Sex: B6C3F1/MALE, Dose: 0, 6.25, 20, 62.5, 200, 625 PPM 6 HR/D 5 D/WK FOR 2 YR (STUDY DURATION: 2 YR), Dose: 0, 6.25, 20, 62.5, 200, 625 PPM 6 HR/D 5 D/WK FOR 2 YR (STUDY DURATION: 2 YR), Tumor Site: Type of Lesion: HEMATOPOIETIC SYSTEM: LYMPHOCYTIC LYMPHOMA, LYMPHOMA, BLOOD VESSELS: HEMANGIOSARCOMA, LUNG: ALVEOLAR/BRONCHIOLAR TUMOR;, Tumor Site: Type of Lesion: HEMATOPOIETIC SYSTEM: LYMPHOCYTIC LYMPHOMA, LYMPHOMA, BLOOD VESSELS: HEMANGIOSARCOMA, LUNG: ALVEOLAR/BRONCHIOLAR TUMOR) was “active; positive”; the carcinogen call (Species: MOUSE, Strain/Sex: B6C3F1/MALE, Dose: 0, 6.25, 20, 62.5, 200, 625 PPM 6 HR/D 5 D/WK FOR 2 YR (STUDY DURATION: 2 YR), Dose: 0, 6.25, 20, 62.5, 200, 625 PPM 6 HR/D 5 D/WK FOR 2 YR (STUDY DURATION: 2 YR), Tumor Site: Type of Lesion: PREPUTIAL GLAND: ADENOMA OR CARCINOMA, LIVER: HEPATOCELLULAR TUMOR, HARDERIAN GLAND: TUMOR, Tumor Site: Type of Lesion: PREPUTIAL GLAND: ADENOMA OR CARCINOMA, LIVER: HEPATOCELLULAR TUMOR, HARDERIAN GLAND: TUMOR) is “active; positive”; the carcinogen call (Species: MOUSE, Strain/Sex: B6C3F1/MALE, Dose: 0, 6.25, 20, 62.5, 200, 625 PPM 6 HR/D 5 D/WK FOR 103 WK (STUDY DURATION: 2 YR), Dose: 0, 6.25, 20, 62.5, 200, 625 PPM 6 HR/D 5 D/WK FOR 103 WK (STUDY DURATION: 2 YR), Tumor Site: Type of Lesion: HEART: HEMANGIOSARCOMA, LUNG: ALVEOLAR/BRONCHIOLAR ADENOMA, ADENOCARCINOMA OR CARCINOMA, FORESTOMACH: SQUAMOUS CELL PAPI, Tumor Site: Type of Lesion: HEART: HEMANGIOSARCOMA, LUNG: ALVEOLAR/BRONCHIOLAR ADENOMA, ADENOCARCINOMA OR CARCINOMA, FORESTOMACH: SQUAMOUS CELL PAPI) is “active; positive”; the carcinogen call (Species: MOUSE, Strain/Sex: B6C3F1/MALE, Dose: 0, 6.25, 20, 62.5, 200 PPM, 6 HR/D 5 D/WK FOR 65 WK (STUDY DURATION: 104 WK), Dose: 0, 6.25, 20, 62.5, 200 PPM, 6 HR/D 5 D/WK FOR 65 WK (STUDY DURATION: 104 WK), Tumor Site: Type of Lesion: HEART: HEMANGIOSARCOMA, LUNG: ALVEOLAR/BRONCHIOLAR TUMOR, HARDERIAN GLAND: ADENOMA, Tumor Site: Type of Lesion: HEART: HEMANGIOSARCOMA, LUNG: ALVEOLAR/BRONCHIOLAR TUMOR, HARDERIAN GLAND: ADENOMA) was “active; positive”; the carcinogen call (Species: MOUSE, Strain/Sex: B6C3F1/MALE, Dose: 0, 200 PPM 6 HR/D 5 D/WK FOR 40 WK, 625 PPM FOR 13 WK, 312 PPM FOR 52 WK OR 625 PPM FOR 26 WK FOLLOWED BY CONTROL CHAMBE, Dose: 0, 200 PPM 6 HR/D 5 D/WK FOR 40 WK, 625 PPM FOR 13 WK, 312 PPM FOR 52 WK OR 625 PPM FOR 26 WK FOLLOWED BY CONTROL CHAMBE, Tumor Site: Type of Lesion: HEART: HEMANGIOSARCOMA, LUNG: ALVEOLAR/BRONCHIOLAR ADENOMA, ADENOCARCINOMA OR CARCINOMA, FORESTOMACH: SQUAMOUS CELL PAPI, Tumor Site: Type of Lesion: HEART: HEMANGIOSARCOMA, LUNG: ALVEOLAR/BRONCHIOLAR ADENOMA, ADENOCARCINOMA OR CARCINOMA, FORESTOMACH: SQUAMOUS CELL PAPI) was “active; positive”; the carcinogen call (Species: MOUSE, Strain/Sex: B6C3F1/MALE, Dose: 0, 1000, 5000, 10000 PPM FOR 2 HR ONCE (STUDY DURATION: 2 YR), Dose: 0, 1000, 5000, 10000 PPM FOR 2 HR ONCE (STUDY DURATION: 2 YR)) was “inactive; negative”. The carcinogen call is “active; positive” (Species: MOUSE, Strain/Sex: B6C3F1/MALE, Dose: 625, 1250 PPM 6 HR/D 5/WK FOR 60 WK, Tumor Site: Type of Lesion: LYMPHATIC SYSTEM: MALIGNANT LYMPHOMA, LUNG: ALVEOLAR/BRONCHIOLAR ADENOMA, CARCINOMA, MYOCARDIUM: HEMANGIOSARCOMA, FOREST, Tumor Site: Type of Lesion: LYMPHATIC SYSTEM: MALIGNANT LYMPHOMA, LUNG: ALVEOLAR/BRONCHIOLAR ADENOMA, CARCINOMA, MYOCARDIUM: HEMANGIOSARCOMA, FOREST); “active; positive” (Species: RAT, Strain/Sex: SPRAGUE-DAWLEY/FEMALE, Dose: 0, 1000, 8000 PPM 6 HR/D 5 D/WK FOR 105 WK (STUDY DURATION: 105 WK), Dose: 0, 1000, 8000 PPM 6 HR/D 5 D/WK FOR 105 WK (STUDY DURATION: 105 WK), Tumor Site: Type of Lesion: UTERUS: SARCOMA, MAMMARY GLAND: ADENOMA, ZYMBAL GLAND: CARCINOMA, THYROID GLAND: FOLLICULAR CELL ADENOMA, Tumor Site: Type of Lesion: UTERUS: SARCOMA, MAMMARY GLAND: ADENOMA, ZYMBAL GLAND: CARCINOMA, THYROID GLAND: FOLLICULAR CELL ADENOMA); “active; positive” (Species: RAT, Strain/Sex: SPRAGUE-DAWLEY/MALE, Dose: 0, 1000, 8000 PPM 6 HR/D 5 D/WK FOR 111 WK (STUDY DURATION: 111 WK), Dose: 0, 1000, 8000 PPM 6 HR/D 5 D/WK FOR 111 WK (STUDY DURATION: 111 WK), Tumor Site: Type of Lesion: PANCREAS: ACINAR CELL ADENOMA, TESTES: LEYDIG CELL TUMOR).
